From patent publication US20220373538A1, “COMPOSITION FOR DETERMINATION OF CELL-MEDIATED IMMUNE RESPONSIVENESS” (Lophius Biosciences GmbH, priority 2015, published 2022)
Like-named read-outs stand apart in the source and are kept apart here.

What was measured:
Type in all cases: cell-based, human
[1] = system: PBMC; assay: IFN-γ ELISpot assay, two-step detection; conditions: for IL-12 concentration at which the number of IFN-γ secreting cells reached a maximum or plateau, IL-12 combined with the poly(I:C) variant: 10 μg/ml poly(I:C)-LMW, 1 μg/ml poly(I:C)-LMW/LyoVec, 1 μg/ml poly(I:C) (Enzo)
[2] = system: PBMC; assay: IFN-γ ELISpot assay, one-step detection; conditions: for IFN-γ secreting cells after stimulation with the single stimulant (in words) / number of IFN-γ secreting cells detected: single stimulant alone; for IFN-γ secreting cells after stimulation with the single stimulant (in words): collective of 10 donors, LPS 1 EU/ml; for number of IFN-γ secreting cells detected: donor d270
[3] = system: PBMC; assay: IFN-γ ELISpot assay (T-Track basic IFN-γ), PBMC of rheumatism patients; conditions: patient P1, giant cell arthritis, 35 mg prednisolone equivalent daily; days 6 and 9
[4] = system: PBMC; assay: IFN-γ ELISA, temporal course of IFN-γ release; conditions: for start of IFN-γ secretion after stimulation: working concentrations, 0 to 24 hours
Protocol: The detection of secreted IFN-γ was performed with the test kit “BD OptEIA Human IFN-γ ELISA Set” from Becton, Dickinson and Company according to the recommended assay performance in the technical data sheet.
To ensure that the activation of the IFN-γ production by the tested stimulants occurred in the typical stimulation period of 19 hours, the temporal course of the IFN-γ secretion induced by the stimulants was determined over a period of 24 hours. For this purpose, at each time point PBMC adjusted to 2×10^5 lymphocytes of different donors have been stimulated by the determined working concentrations of the stimulants poly(I:C) in combination with IL-12. KRN7000 and CEFTv for 0 to 24 hours.
In specifically stimulated cells the determination of the IFN-γ production was made to 11 time points in an interval of 2 or 4 hours. In unstimulated cells (negative control) three measurements in interval of 6 and 12 hours were made. Upon completion of each stimulation period the cells of the stimulation preparation were centrifuged and the supernatant stored at −20° C. After all stimulations were finished the IFN-γ concentration of the supernatants has been determined by IFN-γ ELISA as described in example 3.

[5] = donor d022, a-Gal-Cer variants titrated, 19 h

Q: For `NC(N)=O` [urea], which “influence of urea on IFN-γ secreting cells induced by 1 μg p.p./ml CEFTv (in words)” value (“influence … by 1 μg p.p./ml CEFTv (in words)” for short) ([1]; donor d034) is on record?
A: only improved by a 24 hours pre-incubation of CEFTv or directly added urea

Q: What about the “influence … by 1 μg p.p./ml CEFTv (in words)” value ([1]; donor d204, CEFTv pre-incubated for 48 hours in urea buffer) of the same molecule?
A: deterioration of the stimulation at 100 mM and an improvement at 150 mM

Q: And the “urea concentration up to which the IFN-γ secreting cells increased” value ([1]; donor d204, CEFTv pre-incubated in urea buffer for 24 hours)?
A: 12.5 mM

Q: And the “influence … by 1 μg p.p./ml CEFTv (in words)” value ([1]; donor d204, without pre-incubation)?
A: no improvement

Q: What about the “IFN-γ secreting cells after stimulation with the single stimulant (in words)” value [2] of the same molecule?
A: did not result in a IFN-γ secretion

Q: How did the “IL-12 concentration at which the number of IFN-γ secreting cells reached a maximum or plateau, IL-12 combined with the poly(I:C) variant” value (shortened to “IL-12 concentration at which the number”) ([1]; donor d022) turn out when “polyinosinic:polycytidylic acid [poly(I:C) (from Enzo)]” was run?
A: 0.01 µg/mL

Q: And the “IL-12 concentration at which the number” value ([1]; donor d098)?
A: 0.001 µg/mL

Q: And the “IFN-γ secreting cells after stimulation (in words)” value ([1]; donor d098, poly(I:C) variants)?
A: without reaching a plateau

Q: What about the “IL-12 concentration at which the number” value ([1]; donor d248) of the same molecule?
A: 0.01 µg/mL

Q: What about the “change of the number of IFN-γ secreting cells by IL-12 in combination with the poly(I:C) variant (in words)” value [2] of the same molecule?
A: very low increase

Q: And the “concentration at which the number of IFN-γ secreting cells reached a maximum, plateau or saturation region” value [2]?
A: around 0.3 μg/ml

Q: And the “IFN-γ secreting cells after stimulation (in words)” value ([2]; donor d042, […])?
A: activation of IFN-γ secreting PBMC

Q: And the “number of IFN-γ secreting cells exceeding the plateau of poly(I:C)-LMW” value ([2]; donor d098, at highest concentration tested of 10 μg/ml)?
A: more than 100%

Q: What about the “ranking of activation of IFN-γ secreting cells in culture of human PBMC” value ([2]; summary of one-step and two-step detection) of the same molecule?
A: highest activation of IFN-γ secreting cells

Q: Which results are given for `CCCCCCCCCCCCCCCCCCCCCCCCCC(=O)N[C@@H](CO[C@H]1O[C@H](CO)[C@H](O)[C@H](O)[C@H]1O)[C@H](O)[C@H](O)CCCCCCCCCCCCCC` [KRN7000 (from Enzo)]?
A: IFN-γ secreting cells after stimulation (in words) ([1]; donor d022, a-Gal-Cer variants): highest number; concentration at which the number of IFN-γ secreting cells reached a maximum, plateau or saturation region [2, 5]: 3 µg/mL

Q: `C[C@]12C=CC(=O)C=C1CC[C@@H]1[C@@H]2[C@@H](O)C[C@@]2(C)[C@H]1CC[C@]2(O)C(=O)CO` [prednisolone] was tested. Which “course of cocktail-reactive IFN-γ producing cells under treatment (in words)” value [3] did it give?
A: continuous drop in the numbers of cocktail-reactive IFN-g-producing cells

Q: How did the “number of IFN-γ secreting cells detected” value [2] turn out when “polyinosinic:polycytidylic acid [poly(I:C)]” was run?
A: over 270 IFN-γ secreting cells

Q: How did the “IFN-γ secreting cells after stimulation (in words)” value ([1]; donor d242, a-Gal-Cer variants) turn out when `CCCCCCCCCCCCCCCCCCCCCCCCCC(=O)N[C@@H](CO[C@H]1O[C@H](CO)[C@H](O)[C@H](O)[C@H]1O)[C@H](O)[C@H](O)CCCCCCCCCCCCCC` [KRN7000 (from Funakoshi)] was run?
A: highest number of IFN-γ secreting cells

Q: And the “time at which IFN-γ secretion reached a plateau or maximum” value ([4]; donor d022)?
A: 12 h

Q: And the “start of IFN-γ secretion after stimulation” value ([4]; donor d022)?
A: 8 h

Q: And the “time at which IFN-γ secretion reached a plateau or maximum” value ([4]; donor d248)?
A: 18 h

Q: What about the “start of IFN-γ secretion after stimulation” value ([4]; donor d248) of the same molecule?
A: 2 h

Q: And the “IFN-γ release in PBMC, comparison of stimulants (in words)” value ([4]; summary of donors)?
A: weakest IFN-γ activating properties

Q: What about the “concentration at which the number of IFN-γ secreting cells reached a maximum, plateau or saturation region” value [2, 5] of the same molecule?
A: 1 µg/mL

Q: What about the “more IFN-γ secreting cells activated compared with KRN7000 (from Enzo)” value ([2]; donor d248, saturation region) of the same molecule?
A: 100%

Q: With lipopolysaccharide [LPS] as the molecule, how does the “own stimulating effect of LPS (in words)” value ([1]; LPS 1 EU/ml) read?
A: no own detectable stimulating effect

Q: What about the “stimulation ability of CEFTv on addition of LPS (in words)” value ([1]; summary of four donors) of the same molecule?
A: could not have been improved

Q: What about the “effect of combination of LPS with CEFTv (in words)” value [2] of the same molecule?
A: synergistic induction of IFN-γ secreting NK cells

Q: What about the “stimulation ability of CEFTv on simultaneous administration of LPS (in words)” value ([2]; all three tested donors d204, d237, d254) of the same molecule?
A: did not result in an improvement

Q: What about the “IFN-γ secreting cells after stimulation (in words)” value ([2]; donor d204 (CMV-/EBV-seropositive), CEFTv / LPS matrix) of the same molecule?
A: high numbers of IFN-γ secreting cells

Q: And the “LPS concentration at which stimulated PBMC reached a maximum” value ([2]; donor d219, LPS in combination with CEFTv)?
A: 1 EU/ml

Q: And the “IFN-γ secreting cells after stimulation (in words)” value ([2]; donor d237 (CMV-seronegative/EBV-seropositive), CEFTv / LPS matrix)?
A: high numbers of IFN-γ secreting cells

Q: What about the “LPS concentration as from which IFN-γ secreting cells increased” value ([2]; donor d237, LPS in combination with CEFTv) of the same molecule?
A: 3.2 EU/ml

Q: What about the “LPS concentration as from which LPS alone induced a low secretion of IFN-γ” value ([2]; donor d241) of the same molecule?
A: 10 EU/ml

Q: What about the “LPS concentration as from which IFN-γ secreting cells increased” value ([2]; donor d241, LPS in combination with CEFTv) of the same molecule?
A: 3.2 EU/ml

Q: And the “LPS concentration as from which LPS alone induced a low secretion of IFN-γ” value ([2]; donor d254)?
A: 100 EU/ml

Q: And the “IFN-γ secreting cells after stimulation (in words)” value ([2]; donor d254 (CMV-/EBV-seropositive), CEFTv / LPS matrix)?
A: low numbers of IFN-γ secreting cells

Q: And the “threshold for LPS at which even no IFN-γ secreting cells have been detected” value ([2]; donors d204, d237, d254)?
A: 1 EU/ml

Q: And the “IFN-γ secreting cells after stimulation with the single stimulant (in words)” value [2]?
A: barely detected

Q: And the “number of IFN-γ secreting cells detected” value [2]?
A: high number of IFN-γ secreting cells
